According to ChEMBL document CHEMBL4665892, “Structural Basis for the Binding Mechanism of Human Serum Albumin Complexed with Cyclic Peptide Dalbavancin” (J Med Chem, 2020):

Assay: Protein binding in human plasma
Assay type: ADME, cell-free
Conditions: read-out: PPB (converted)

CCCCCCCCCC(=O)N[C@@H](Cc1c[nH]c2ccccc12)C(=O)N[C@H](CC(N)=O)C(=O)N[C@@H](CC(=O)O)C(=O)N[C@@H]1C(=O)NCC(=O)N[C@@H](CCCN)C(=O)N[C@@H](CC(=O)O)C(=O)N[C@H](C)C(=O)N[C@@H](CC(=O)O)C(=O)NCC(=O)N[C@H](CO)C(=O)N[C@@H]([C@H](C)CC(=O)O)C(=O)N[C@@H](CC(=O)c2ccccc2N)C(=O)O[C@@H]1C
fraction unbound: 0.15
